Measured values taken from patent US20110110916A1, “METHODS FOR TREATING AND/OR PREVENTING CARDIOMYOPATHIES BY ERK OR JNK INHIBITION” (priority 2008, published 2011).

Test system: HeLa cells
Assay: ERK1/2 phosphorylation in HeLa cells treated with Emd and Lmna siRNAs
Format: cell-based, human
Details: 45 μM for 24 hours
Procedure: Human HeLa cells and mouse C2C12 cells were maintained in a 5% CO2 atmosphere at 37° C. The cells were cultured in Dulbecco's modified Eagle's medium supplemented with 10% calf bovine serum and 0.1% gentamicin.
One day before transfection, HeLa and C2C12 cells were trypsinized, diluted with fresh medium without antibiotics and transferred to 24-well plates. Transient transfection of siRNAs was carried out using Oligofectamine (Invitrogen) as recommended by the manufacturer. Cells were preincubated in 7.5 μl OPTIMEM 1 medium (Life Technologies) and 2 μl Oligofectamine per well for 5 minutes at room temperature. During the time of this incubation, 40 μl OPTIMEM 1 medium were mixed with 2.5 μl siRNA. The two mixtures were combined and incubated for 20 minutes at room temperature for complex formation. The entire mixture was added to the cells in one well resulting in a final concentration of […] for the siRNAs. […]
Proteins were separated by SDS-PAGE, transferred to nitrocellulose membranes and blotted with primary antibodies against ERK1/2 (Santa-Cruz), pERK1/2 (Cell Signaling), lamin A/C (Santa-Cruz), emerin (Novocatra), β-actin (Sant-Cruz) and Gapdh (Santa-Cruz). […] Band densities were calculated using Scion Image software (Scion Corporation) and normalized to the appropriate total extract to control for protein loading. […]

COc1cccc(-c2cc(=O)c3ccccc3o2)c1N [PD98059, 2-(2-amino-3-methoxyphenyl)-4H-1-benzopyran-4-one]
increase in pERK (immunoblot): reduced
